Measured values reported in US9306235B2, “Redox flow battery” (SAMSUNG ELECTRONICS CO., LTD., priority 2010, dated 2016).

Assay: Evaluation of organic electrolyte solubility together with a supporting electrolyte
Format: physicochemical
Conditions: generation of precipitates identified
Procedure: In the case where an organic electrolyte is used together with a supporting electrolyte, solubility of the organic electrolyte is evaluated. As the supporting electrolyte, TEABF4 and SBPBF4 are added to each of 0.0M, 0.2M, and 0.5M propylene carbonate aliquots, and then 1.2M Fe(bpy)3(BF4)2 is added to a final volume of 10 mL. The generation of precipitates is identified for each case.

[1] = supporting electrolyte 0.0 Mole (0.0M) in propylene carbonate
[2] = supporting electrolyte 0.2 Mole (0.2M) in propylene carbonate
[3] = supporting electrolyte 0.5 Mole (0.5M) in propylene carbonate

C1CC[N+]2(C1)CCCC2.F[B-](F)(F)F [SBPBF4, spiro-(1,1′)-bipyrrolidiniumtetrafluoroborate]
Solubility of 1.2M Fe(bpy)3(BF4)2 [1]: Soluble
Solubility of 1.2M Fe(bpy)3(BF4)2 [2]: Soluble
Solubility of 1.2M Fe(bpy)3(BF4)2 [3]: Soluble

CC[N+](CC)(CC)CC.F[B-](F)(F)F [TEABF4, tetraethylammoniumtetrafluoroborate]
Solubility of 1.2M Fe(bpy)3(BF4)2 [1]: Soluble
Solubility of 1.2M Fe(bpy)3(BF4)2 [2]: Precipitation
Solubility of 1.2M Fe(bpy)3(BF4)2 [3]: Precipitation
